Experimental findings from patent US20250129047A1, “ISOQUINOLINE DERIVATIVES AS MUTANT EGFR MODULATORS AND USES THEREOF” (NEWAVE PHARMACEUTICAL INC., priority 2021, published 2025) are described below.

SMILES strings stand for the structures. pIC50: −log10 of the molar value.

Common to all, as to conditions: apparent IC50; 1.0 mM ATP or ATP Km; FL-Peptide 22 substrate; 25° C.
For test [1], the target named is T1, EGFR (d746-750) T790M C797S (Homo sapiens, UniProt P00533, C797S/DEL746-750/T790M).
T1 construct: purchased SignalChem E10-122UG
The experiment in a line: Biochemical EGFR inhibition assay (Caliper mobility shift), EGFR d746-750 T790M C797S. The procedure: (§1) Inhibitory effects of the compounds of the disclosure were measured in biochemical assays that measure the phosphorylation activity of EGFR enzyme phosphorylates 2.5 micromolar 5-FAM-EEPLYWSFPAKKK-CONFF peptide substrate (FL-Peptide 22, PerkinElmer, 760366) in the presence of adenosine-5′-triphosphate (ATP) and varying concentrations of the test compound in 100 mM 2-[4-(2-hydroxyethyl)piperazin-1-yl]ethanesulfonic acid (HEPES), pH 7.5, 10 mM MgCE. 0.015% Brij-35, 1 mM dithiothreitol (DTT), 1.0% dimehylsulfoxide (DMSO). Assays were performed at 1.0 mM ATP or at ATP Km of the EGFR enzymes. Reactions proceeded until between 10% to 20% total peptides were phosphorylated at room temperature (25° C.) and were terminated with 35 mM 2,2′,2″,2″-(ethane-1,2-diyldinitrilo)tetraacetic acid (EDTA). Product was detected using the Caliper mobility shift detection method where the phosphorylated peptide (product) and substrate were electrophoretically separated and measured. Percent activity was plotted against log concentration of compound and points to generate an apparent IC50. […]

The target of another test is T2, EGFR L858R (Homo sapiens, UniProt P00533, L858R).
T2 construct: purchased SignalChem E10-122BG
The experiment in a line: Biochemical EGFR inhibition assay (Caliper mobility shift), EGFR L858R. The procedure:
as §1

For another test, the target named is EGFR d746-750 T790M (Homo sapiens, UniProt P00533, DEL746-750/T790M). Description: Biochemical EGFR inhibition assay (Caliper mobility shift), EGFR d746-750 T790M. How it is done: as §1
Another test has as its target T3, EGFR (L858R T790M C797S) (Homo sapiens, UniProt P00533, C797S/L858R/T790M).
T3 construct: purchased SignalChem E10-122VG
Description: Biochemical EGFR inhibition assay (Caliper mobility shift), EGFR L858R T790M C797S. The procedure:
as §1

The target of another test is EGFR L858R T790M (Homo sapiens, UniProt P00533, L858R/T790M). Description: Biochemical EGFR inhibition assay (Caliper mobility shift), EGFR L858R T790M. How it is done:
as §1

T1 sequence (P00533 with tags, fused parts or gaps DEL746-750/T790M/C797S limits assumed): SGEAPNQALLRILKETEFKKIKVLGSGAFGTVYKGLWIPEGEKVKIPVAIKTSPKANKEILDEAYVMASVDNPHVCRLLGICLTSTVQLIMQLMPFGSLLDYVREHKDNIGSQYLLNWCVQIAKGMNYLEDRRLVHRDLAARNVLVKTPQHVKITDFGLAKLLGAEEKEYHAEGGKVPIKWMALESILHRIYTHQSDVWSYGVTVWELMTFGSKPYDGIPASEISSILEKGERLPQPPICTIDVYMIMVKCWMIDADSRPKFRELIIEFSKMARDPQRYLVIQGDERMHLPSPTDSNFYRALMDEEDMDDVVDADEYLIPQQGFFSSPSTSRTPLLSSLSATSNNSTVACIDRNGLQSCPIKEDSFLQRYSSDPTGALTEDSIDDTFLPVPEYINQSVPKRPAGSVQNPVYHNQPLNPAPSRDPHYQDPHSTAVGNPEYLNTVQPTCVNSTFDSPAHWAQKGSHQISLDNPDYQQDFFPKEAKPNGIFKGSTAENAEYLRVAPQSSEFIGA
T2 sequence (P00533 25-1210 L858R): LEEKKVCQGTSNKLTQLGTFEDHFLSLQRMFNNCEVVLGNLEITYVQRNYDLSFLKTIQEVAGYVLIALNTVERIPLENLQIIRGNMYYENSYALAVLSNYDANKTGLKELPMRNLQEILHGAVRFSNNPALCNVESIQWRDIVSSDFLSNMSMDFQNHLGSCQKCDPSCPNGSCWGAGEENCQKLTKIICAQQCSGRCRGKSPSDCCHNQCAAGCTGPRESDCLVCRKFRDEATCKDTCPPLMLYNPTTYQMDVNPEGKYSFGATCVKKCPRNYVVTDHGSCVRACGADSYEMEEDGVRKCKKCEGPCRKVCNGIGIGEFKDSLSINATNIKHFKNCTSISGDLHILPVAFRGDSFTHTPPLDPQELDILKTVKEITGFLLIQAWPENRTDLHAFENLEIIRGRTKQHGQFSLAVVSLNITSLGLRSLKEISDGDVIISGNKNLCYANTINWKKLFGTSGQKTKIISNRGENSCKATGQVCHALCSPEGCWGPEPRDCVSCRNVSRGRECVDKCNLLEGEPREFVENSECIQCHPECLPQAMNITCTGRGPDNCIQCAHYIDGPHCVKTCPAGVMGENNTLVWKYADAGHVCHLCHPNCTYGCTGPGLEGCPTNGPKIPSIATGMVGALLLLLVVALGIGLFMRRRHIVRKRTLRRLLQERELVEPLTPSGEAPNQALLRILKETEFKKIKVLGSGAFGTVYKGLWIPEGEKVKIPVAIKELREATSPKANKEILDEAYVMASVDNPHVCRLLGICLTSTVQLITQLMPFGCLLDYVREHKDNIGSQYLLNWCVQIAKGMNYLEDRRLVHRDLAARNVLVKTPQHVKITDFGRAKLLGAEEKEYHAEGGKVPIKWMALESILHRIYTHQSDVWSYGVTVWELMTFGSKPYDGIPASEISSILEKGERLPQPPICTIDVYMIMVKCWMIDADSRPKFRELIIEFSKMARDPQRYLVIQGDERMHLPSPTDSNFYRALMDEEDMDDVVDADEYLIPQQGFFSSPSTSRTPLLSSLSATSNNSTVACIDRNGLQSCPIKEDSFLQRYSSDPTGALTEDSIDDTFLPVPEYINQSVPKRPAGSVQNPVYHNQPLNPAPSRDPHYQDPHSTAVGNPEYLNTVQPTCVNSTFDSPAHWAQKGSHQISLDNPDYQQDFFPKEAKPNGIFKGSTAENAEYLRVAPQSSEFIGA
Sequence of EGFR d746-750 T790M (P00533 with tags, fused parts or gaps DEL746-750/T790M limits assumed): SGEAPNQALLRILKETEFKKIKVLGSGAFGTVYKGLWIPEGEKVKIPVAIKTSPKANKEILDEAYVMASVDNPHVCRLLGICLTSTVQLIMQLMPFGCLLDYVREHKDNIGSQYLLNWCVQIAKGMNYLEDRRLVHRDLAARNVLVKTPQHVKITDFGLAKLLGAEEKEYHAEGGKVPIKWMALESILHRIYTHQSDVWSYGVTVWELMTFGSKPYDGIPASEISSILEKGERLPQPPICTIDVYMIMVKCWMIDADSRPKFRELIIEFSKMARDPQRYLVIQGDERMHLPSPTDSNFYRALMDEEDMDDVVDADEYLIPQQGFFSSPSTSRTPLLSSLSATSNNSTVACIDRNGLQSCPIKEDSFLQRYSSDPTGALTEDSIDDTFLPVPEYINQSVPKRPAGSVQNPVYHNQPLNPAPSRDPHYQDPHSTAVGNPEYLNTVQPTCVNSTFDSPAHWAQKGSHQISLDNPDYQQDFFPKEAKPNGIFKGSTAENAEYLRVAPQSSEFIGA
T3 sequence (P00533 25-1210 T790M/C797S/L858R): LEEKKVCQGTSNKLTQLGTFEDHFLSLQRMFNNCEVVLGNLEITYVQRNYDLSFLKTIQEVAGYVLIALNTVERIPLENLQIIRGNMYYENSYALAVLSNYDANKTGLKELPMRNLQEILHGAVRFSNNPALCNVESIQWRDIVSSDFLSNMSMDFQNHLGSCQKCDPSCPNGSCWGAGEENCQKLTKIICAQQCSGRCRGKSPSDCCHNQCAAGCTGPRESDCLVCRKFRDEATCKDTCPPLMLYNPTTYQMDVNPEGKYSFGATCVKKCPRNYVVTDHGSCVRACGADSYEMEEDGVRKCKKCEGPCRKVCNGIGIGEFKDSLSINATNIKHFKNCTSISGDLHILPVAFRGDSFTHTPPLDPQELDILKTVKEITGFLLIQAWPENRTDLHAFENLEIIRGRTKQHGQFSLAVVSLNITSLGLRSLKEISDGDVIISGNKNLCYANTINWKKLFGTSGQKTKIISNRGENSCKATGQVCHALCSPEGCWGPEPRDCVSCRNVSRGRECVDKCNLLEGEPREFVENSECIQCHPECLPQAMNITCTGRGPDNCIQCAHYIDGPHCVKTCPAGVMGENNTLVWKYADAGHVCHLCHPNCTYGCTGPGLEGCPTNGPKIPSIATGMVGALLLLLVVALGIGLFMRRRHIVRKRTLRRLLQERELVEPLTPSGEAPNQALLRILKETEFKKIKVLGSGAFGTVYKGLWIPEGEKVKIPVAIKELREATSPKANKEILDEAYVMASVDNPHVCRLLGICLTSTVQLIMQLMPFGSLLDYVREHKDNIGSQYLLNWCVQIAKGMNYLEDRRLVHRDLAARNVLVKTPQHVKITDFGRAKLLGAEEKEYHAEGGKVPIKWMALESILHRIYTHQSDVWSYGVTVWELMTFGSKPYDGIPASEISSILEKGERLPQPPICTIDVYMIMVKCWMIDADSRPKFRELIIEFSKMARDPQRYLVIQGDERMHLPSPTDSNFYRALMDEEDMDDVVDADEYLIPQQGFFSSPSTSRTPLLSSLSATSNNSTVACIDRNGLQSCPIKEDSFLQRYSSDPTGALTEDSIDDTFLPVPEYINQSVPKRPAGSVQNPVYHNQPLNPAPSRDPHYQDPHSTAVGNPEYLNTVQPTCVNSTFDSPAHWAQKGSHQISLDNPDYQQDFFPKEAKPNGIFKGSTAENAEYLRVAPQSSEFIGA
Sequence of EGFR L858R T790M (P00533 25-1210 T790M/L858R): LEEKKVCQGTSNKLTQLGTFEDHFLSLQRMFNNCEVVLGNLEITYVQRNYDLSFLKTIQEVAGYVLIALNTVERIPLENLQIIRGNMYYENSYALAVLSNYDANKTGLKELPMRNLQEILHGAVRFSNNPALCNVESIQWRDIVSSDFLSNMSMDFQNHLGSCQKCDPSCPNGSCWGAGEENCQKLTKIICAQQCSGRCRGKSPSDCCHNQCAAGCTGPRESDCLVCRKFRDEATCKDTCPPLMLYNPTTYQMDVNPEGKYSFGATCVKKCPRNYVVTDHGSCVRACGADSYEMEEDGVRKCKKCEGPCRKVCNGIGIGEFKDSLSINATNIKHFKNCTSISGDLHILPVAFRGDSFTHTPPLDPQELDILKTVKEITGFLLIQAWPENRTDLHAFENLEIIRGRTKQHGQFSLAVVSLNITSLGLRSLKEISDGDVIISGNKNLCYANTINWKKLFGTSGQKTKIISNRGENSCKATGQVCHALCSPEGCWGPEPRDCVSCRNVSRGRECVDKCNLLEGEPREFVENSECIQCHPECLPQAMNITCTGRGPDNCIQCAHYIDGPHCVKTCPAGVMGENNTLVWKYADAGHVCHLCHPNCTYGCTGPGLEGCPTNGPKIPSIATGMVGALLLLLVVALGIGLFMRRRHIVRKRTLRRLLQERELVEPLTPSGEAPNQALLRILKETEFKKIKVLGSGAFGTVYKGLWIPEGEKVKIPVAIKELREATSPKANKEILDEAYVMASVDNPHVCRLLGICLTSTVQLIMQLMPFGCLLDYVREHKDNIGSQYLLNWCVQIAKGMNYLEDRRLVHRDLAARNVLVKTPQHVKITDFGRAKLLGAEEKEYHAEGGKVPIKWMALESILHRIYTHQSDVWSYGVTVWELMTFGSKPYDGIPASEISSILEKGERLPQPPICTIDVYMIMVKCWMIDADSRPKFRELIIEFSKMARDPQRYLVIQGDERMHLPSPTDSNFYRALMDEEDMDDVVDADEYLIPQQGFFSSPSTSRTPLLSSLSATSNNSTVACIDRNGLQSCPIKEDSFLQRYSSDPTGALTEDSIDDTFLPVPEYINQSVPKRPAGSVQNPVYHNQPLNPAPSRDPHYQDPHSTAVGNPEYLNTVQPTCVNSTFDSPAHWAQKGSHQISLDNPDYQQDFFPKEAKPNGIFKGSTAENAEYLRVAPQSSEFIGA

Take `C=CC(=O)N1CCC[C@H]1c1ccc(N2C[C@H](CS(C)(=O)=O)[C@H]2C)c2cnc(Nc3ccnc(N4CC[C@@H](OC)[C@@H](F)C4)n3)cc12` [Example 2, 1-[(2S)-2-[3-({2-[(3S,4R)-3-fluoro-4-methoxypiperidin-1-yl]pyrimidin-4-yl}amino)-8-[(2R,3S)-3-(methanesulfonylmethyl)-2-methylazetidin-1-yl]isoquinolin-5-yl]pyrrolidin-1-yl]prop-2-en-1-one]: the pIC50 was 8.64 in test [1] and 7.00 at EGFR L858R.

Take `C=CC(=O)N1CCC[C@@H]1c1ccc(N2C[C@H](CS(C)(=O)=O)[C@H]2C)c2cnc(Nc3ccnc(N4CC[C@@H](OC)[C@@H](F)C4)n3)cc12` [Example 3, 1-[(2R)-2-[3-({2-[(3S,4R)-3-fluoro-4-methoxypiperidin-1-yl]pyrimidin-4-yl}amino)-8-[(2R,3S)-3-(methanesulfonylmethyl)-2-methylazetidin-1-yl]isoquinolin-5-yl]pyrrolidin-1-yl]prop-2-en-1-one]: the negative logarithm of the IC50 (pIC50) was 9.06 at EGFR d746-750 T790M; 9.16 at EGFR (L858R T790M C797S); 9.54 on EGFR L858R T790M; 9.82 in test [1]; 8.82 on EGFR L858R.
